Read-outs that look alike come from different tables or passages of the source.
Assays:
[1] = test system: resistant E. coli isolate; experiment: 23S rDNA copy number by digital PCR on a SlipChip after ciprofloxacin exposure, resistant isolate; format: cell-based; conditions: Example 4 resistant isolate, 2.5 ug/mL ciprofloxacin
[2] = test system: ciprofloxacin-susceptible E. coli isolate from a patient with a urinary tract infection; conditions: 0.75 ug/mL ciprofloxacin, 30 minutes, 1:1 BHI:urine, qPCR, 3 replicates
[3] = test system: susceptible UTI E. coli isolate; conditions: 2.5 ug/mL ciprofloxacin, 15 minutes, BHI
[4] = test system: ciprofloxacin-susceptible E. coli isolate from a patient with a urinary tract infection; conditions: 0.75 ug/mL ciprofloxacin, 30 minutes, sample diluted 1:10, digital PCR, Poisson statistics
E. coli isolates = conditions: RNA target; cited from earlier work
resistant UTI E. coli = conditions: 2.5 ug/mL ciprofloxacin, 15 minutes, BHI
[5] = test system: E. coli isolates from patients with urinary tract infections and susceptible to various antibiotics; conditions: 1:1 BHI:urine, qPCR
E. coli = conditions: after treatment with trimethoprim, susceptible cells, vs baseline level of zero (Slager 2014); cited from earlier work

O=C(O)c1cn(C2CC2)c2cc(N3CCNCC3)c(F)cc2c1=O [ciprofloxacin]
change in rDNA copy number [1]: No significant change | Cq of rDNA, treated sample [2]: 22.84+/−0.53 | 23S CT Treated [3]: 20.19/20.84 | FeoB CT Treated [3]: 23.3/23.71 | dnaAinh CT Treated [3]: 23.93/23.97 | recA CT Treated [3]: 24.81/24.65 | 23S rDNA concentration, treated sample [4]: 148,031+/−7,103 copies/mL | Response to Ciprofloxacin: EcHS_A0999 dmsA anaerobic dimethyl sulfoxide reductase, A subunit (E. coli isolates): Same or Downregulated | Response to Ciprofloxacin: EcHS_A1247 pepT peptidase T (E. coli isolates): Same or Downregulated | Response to Ciprofloxacin: EcHS_A1333 narK nitrite extrusion protein 1 (E. coli isolates): Same or Downregulated | Response to Ciprofloxacin: EcHS_A1334 narG nitrate reductase, alpha subunit (E. coli isolates): Same or Downregulated | Response to Ciprofloxacin: EcHS_A1335 narH nitrate reductase, beta subunit (E. coli isolates): Same or Downregulated | Response to Ciprofloxacin: EcHS_A1557 fdnG formate dehydrogenase, nitrate inducible, alpha subunit, selenocysteine-containing (E. coli isolates): Same or Downregulated | Response to Ciprofloxacin: EcHS_A1755 hypothetical protein (E. coli isolates): Same or Downregulated | Response to Ciprofloxacin: EcHS_A1940 DNA damage-inducible protein YebG (E. coli isolates): Significantly Upregulated | Response to Ciprofloxacin: EcHS_A1987 flhC transcriptional activator FlhC (E. coli isolates): Same or Downregulated | Response to Ciprofloxacin: EcHS_A1988 flhD transcriptional activator FlhD (E. coli isolates): Same or Downregulated | Response to Ciprofloxacin: EcHS_A2346 napF ferredoxin-type protein (E. coli isolates): Same or Downregulated | Response to Ciprofloxacin: EcHS_A2835 recA recombinase A (E. coli isolates): Significantly Upregulated | Response to Ciprofloxacin: EcHS_A4283 lexA LexA repressor (E. coli isolates): Significantly Upregulated | Response to Ciprofloxacin: EcHS_A4284 dinF DNA-damage-inducible SOS response protein (E. coli isolates): Significantly Upregulated | Response to Ciprofloxacin: EcHS_A4300 uvrA excinuclease ABC subunit A (E. coli isolates): Significantly Upregulated | 23S CT Treated (resistant UTI E. coli): 20.22/20.13 | FeoB CT Treated (resistant UTI E. coli): 23.19/23.1 | dnaAinh CT Treated (resistant UTI E. coli): 23.68/23.89 | recA CT Treated (resistant UTI E. coli): 27.19/27.05

O=C1CN(/N=C/c2ccc([N+](=O)[O-])o2)C(=O)N1 [nitrofurantoin]
fold change in rDNA copy number ([5]; nitrofurantoin treatment, 15 minutes): 1.62 fold

CN(C)[C@@H]1C(O)=C(C(N)=O)C(=O)[C@@]2(O)C(O)=C3C(=O)c4c(O)cccc4[C@@](C)(O)[C@H]3C[C@@H]12 [tetracycline]
fold change in rDNA copy number ([5]; tetracycline treatment, 30 minutes): 1.55 fold

COc1cc(Cc2cnc(N)nc2N)cc(OC)c1OC [trimethoprim]
relative DNA copy number as compared to the distance from the origin of replication (oriC) (E. coli): peaks close to the origin of replication

trimethoprim/sulfamethoxazole
fold change in rDNA copy number ([5]; trimethoprim/sulfamethoxazole treatment, 45 minutes): 1.35 fold

Reference: US11542545B2, “Microfluidic measurements of the response of an organism to a drug” (priority 2014, dated 2023)
